Laboratory results as given in US8357673B2, “4-arylazo-3,5-diamino-pyrazole compounds and use thereof” (Univerzita Palackeho V Olomouci, priority 2004, dated 2013).
Read-outs that look alike come from different tables or passages of the source.

Tests used:
[1] = biological target: T1, CDK1/cyclin B (Homo sapiens, UniProt P06493); experiment: CDK1/cyclin B kinase inhibition assay (histone H1, [γ-33P]ATP); format: biochemical; conditions: averaged from triplicates; 15 μM ATP
T1 construct: made in house; host or cells: Sf9 insect cells (baculovirus co-infection)
T1 sequence (P06493 whole entry): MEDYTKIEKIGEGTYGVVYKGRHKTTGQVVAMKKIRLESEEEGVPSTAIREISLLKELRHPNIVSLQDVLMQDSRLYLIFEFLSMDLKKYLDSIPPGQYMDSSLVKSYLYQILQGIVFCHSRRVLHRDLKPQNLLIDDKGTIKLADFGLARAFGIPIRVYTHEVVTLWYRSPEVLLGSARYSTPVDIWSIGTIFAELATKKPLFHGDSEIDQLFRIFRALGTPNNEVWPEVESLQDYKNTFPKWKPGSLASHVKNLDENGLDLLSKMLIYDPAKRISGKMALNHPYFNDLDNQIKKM
T1 sequence (P14635 whole entry partner): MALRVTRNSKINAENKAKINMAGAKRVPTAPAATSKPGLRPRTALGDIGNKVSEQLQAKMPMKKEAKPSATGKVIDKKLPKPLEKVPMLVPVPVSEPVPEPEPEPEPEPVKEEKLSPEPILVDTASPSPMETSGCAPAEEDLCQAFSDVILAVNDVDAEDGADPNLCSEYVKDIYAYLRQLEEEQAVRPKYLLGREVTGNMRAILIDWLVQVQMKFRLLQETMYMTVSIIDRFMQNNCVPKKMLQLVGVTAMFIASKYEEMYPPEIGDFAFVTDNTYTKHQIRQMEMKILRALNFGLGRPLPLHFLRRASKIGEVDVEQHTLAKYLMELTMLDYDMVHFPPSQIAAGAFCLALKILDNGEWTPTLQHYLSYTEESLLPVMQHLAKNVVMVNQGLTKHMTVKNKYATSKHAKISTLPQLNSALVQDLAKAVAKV
Experimental: (§1) CDK1/cyclin B and CDK2/cyclin E kinases were produced in Sf9 insect cells coinfected with appropriate baculoviral constructs. The cells were harvested 70 h post infection, incubated in lysis buffer (50 mM Tris pH 7.4, 150 mM NaCl, 5 mM EDTA, 20 mM NaF, 1% Tween 20, 1 mM DTT, 0.1 mM PMSF, 0.5 μg/ml leupeptine, 1 μg/ml aprotonine) for 30 min on ice and the soluble fraction was recovered by centrifugation at 20.000 g for 10 min. The enzymes were purified on NiNTA column (Qiagen), stored at 4° C. and used within a week. To carry out the enzyme inhibition assays under linear conditions, the final point test system for kinase activity measurement was used. Kinase was added to reaction mixture in such a way as to obtain linear activity with respect to the concentration of enzyme and with respect to time. For determination of kinase inhibition the reaction mixture contained 1 mg/ml histone H1 (type III-S, Sigma) in the presence of 15 μM ATP, 0.05 μCi [γ-^33P]ATP and the tested compound in a final volume of 10 μl; all in reaction buffer (50 mM HEPES, 10 mM MgCl2, 5 mM EGTA, 10 mM 2-glycerolphosphate, 1 mM NaF, 1 mM DTT, pH 7.4). After 20 min incubation, the reactions were stopped by the addition of 5 μl of a 3% H3PO4, aliquots were spotted on P-81 phosphocellulose (Whatman, USA) that was subsequently washed 3× with 5% H3PO4 and finally air dried. The measurements of kinase inhibition employed digital image analyzer BAS-1800 (Fujifilm, Japan). Kinase activity was usually expressed as a percentage of maximum activity. […] For the purpose of kinetic analysis, the activity was expressed as arbitrary units (AU) of digital image analyzer signal.

[2] = In vitro cytotoxicity, Calcein AM, 72 h; format: cell-based, human; conditions: human, at 100 μM
Experimental: (§2) Tested drugs were added to the cell cultures in six different concentration and kept at 37° C. and 5% CO2 for three days.
(§3) The cells, cultured in DMEM (supplemented with 10% fetal calf serum, 4 mM glutamine, 100 IU/ml penicillin, 100 μg/ml streptomycin) in a humidified CO2 incubator at 37° C., were redistributed into 96-well microtitre plates (10.000 cells per well). After 12 h preincubation, tested compounds in six-fold dilutions were added. Treatment of cells with the tested compounds (in the 1-100 μM range) lasted for 72 h.

[3] = system: G 361 (human malignant melanoma); experiment: In vitro cytotoxicity, Calcein AM, 72 h; format: cell-based; conditions: for IC50: read-out: IC50 (μM) G361
Experimental: as §2, §3

[4] = system: HOS (human osteogenic sarcoma); experiment: In vitro cytotoxicity, Calcein AM, 72 h; format: cell-based; conditions: for IC50: read-out: IC50 (μM) HOS
Experimental: as §2, §3

[5] = system: K562 (human chronic myeloblastic leukemia); experiment: In vitro cytotoxicity, Calcein AM, 72 h; format: cell-based; conditions: for IC50: read-out: IC50 (μM) K562
Experimental: as §2, §3

[6] = system: MCF7 (human breast adenocarcinoma); experiment: In vitro cytotoxicity, Calcein AM, 72 h; format: cell-based; conditions: for IC50: read-out: IC50 (μM) MCF7
Experimental: as §2, §3

[7] = biological target: T2, CDK2/cyclin E (Homo sapiens, UniProt P24941); experiment: CDK2/cyclin E kinase inhibition assay (histone H1, [γ-33P]ATP); format: biochemical; conditions: for IC50: averaged from triplicates, 15 μM ATP
T2 construct: made in house; host or cells: Sf9 insect cells (baculovirus co-infection)
Experimental: as §1

SMILES | IC50 [1] | IC50 [7] | further results
Nc1n[nH]c(N)c1/N=N/c1ccc([N+](=O)[O-])cc1 [Compound 9b, 3,5-diamino-4-(4-nitro)phenylazo-pyrazole] | 16 µM |  | viability at 72 h, 100 µM ([2]; G 361 cells (human malignant melanoma), 72 h, read-out: % of viable cells G361): 61%; viability at 72 h, 100 µM ([2]; HOS cells (human osteogenic sarcoma), read-out: % of viable cells HOS): 80%; viability at 72 h, 100 µM ([2]; K562 cells (human chronic myeloblastic leukemia), 72 h, read-out: % of viable cells K562): 25%; viability at 72 h, 100 µM ([2]; MCF7 cells (human breast adenocarcinoma), 72 h, read-out: % of viable cells MCF7): 60%; IC50 ([3]; Homo sapiens, G-361, 72 h): > 100 µM; IC50 ([4]; Homo sapiens): > 100 µM; IC50 ([5]; Homo sapiens, K562, 72 h): 71 ± 6 µM; IC50 ([6]; Homo sapiens, MCF7, 72 h): > 100 µM
COc1ccc(NS(=O)(=O)c2ccc(N=Nc3c(N)n[nH]c3N)cc2)nn1 [Compound 23b, 4-[(3,5-diamino-pyrazol-4-yl)-azo]-N-(6-methoxypyridazin-3-yl)-benzensulfonamide] | > 100 µM | > 100 µM | 
Nc1n[nH]c(N)c1/N=N/c1ccc(-c2nc3ccccc3[nH]c2=O)cc1 [Compound 24b] | > 100 µM | > 100 µM | 
N=C(N)NS(=O)(=O)c1ccc(N=Nc2c(N)n[nH]c2N)cc1 [Compound 19b, N-[amino(imino)methyl]-4-[(3,5-diamino-pyrazol-4-yl)azo]-benzansulfonamide] | > 100 µM |  | 
Nc1n[nH]c(N)c1N=Nc1ccccc1C(=O)O [Compound 13b, 3,5-diamino-4-(2-carboxy)phenylazo-pyrazole] | 70 µM | 88 µM | 
Nc1n[nH]c(N)c1/N=N/c1cccc(C(=O)c2cccc(/N=N/c3c(N)n[nH]c3N)c2)c1 [Compound 33d] | > 100 µM | > 100 µM | 
Nc1n[nH]c(N)c1N=Nc1cccc2ccccc12 [Compound 28b, 3,5-diamino-4-(naphth-1-yl)azo-pyrazole] | 5.5 µM | 10 µM | IC50 ([3]; 72 h, Calcein AM, triplicates): > 100 µM; % of viable cells G361 ([3]; at 100 μM, 72 h): (55 ± 14%); IC50 ([4]; Calcein AM, triplicates): > 100 µM; % of viable cells HOS ([4]; at 100 μM): (79 ± 8%); IC50 ([5]; 72 h, Calcein AM, triplicates): 50 ± 3 µM; % of viable cells K562 ([5]; at 100 μM, 72 h): (7.7 ± 6%); IC50 ([6]; 72 h, Calcein AM, triplicates): > 100 µM; % of viable cells MCF7 ([6]; at 100 μM, 72 h): (56 ± 1%)
Nc1n[nH]c(N)c1/N=N/c1ccc(S(=O)(=O)c2ccc(/N=N/c3c(N)n[nH]c3N)cc2)cc1 [Compound 34d] | > 100 µM | > 100 µM | 
Nc1n[nH]c(N)c1/N=N/c1ccc(Cl)cc1 [Compound 4b, 3,5-diamino-4-(4-chloro)phenylazo-pyrazole] | 60 µM | 45 µM | 

Further lines, with some results ahead:

IC50 [1] | IC50 [7] | SMILES | further results
> 100 µM | > 100 µM | Nc1n[nH]c(N)c1/N=N/c1ccccc1-c1nc2ccccc2[nH]c1=O [Compound 25b] | 
> 100 µM | > 100 µM | Cc1cc(C)nc(NS(=O)(=O)c2ccc(N=Nc3c(N)n[nH]c3N)cc2)n1 [Compound 21b, 4-[(3,5-diamino-pyrazol-4-yl)-azo]-N-(4,6-dimethylpyrimidin-2-yl)benzensulfonamide] | inhibition of the enzyme CDK2 (in words) [7]: failed to inhibit the enzyme
34 µM | 27 µM | Nc1n[nH]c(N)c1N=Nc1cccc(C(=O)O)c1 [Compound 14b, 3,5-diamino-4-(3-carboxy)phenylazo-pyrazole] | 
> 100 µM | > 100 µM | CC(=O)NS(=O)(=O)c1ccc(N=Nc2c(N)n[nH]c2N)cc1 [Compound 18b, N-({4-[(3,5-diamino-pyrazol-4-yl)azo]phenyl}sulfonyl)-acetamide] | inhibition of the enzyme CDK2 (in words) [7]: failed to inhibit the enzyme
25 µM | 24 µM | Nc1n[nH]c(N)c1/N=N/c1ccc(F)cc1 [Compound 3b, 3,5-diamino-4-(4-fluoro)phenylazo-pyrazole] | 
> 100 µM | > 100 µM | Nc1n[nH]c(N)c1/N=N/c1ccc(C(=O)c2ccc(/N=N/c3c(N)n[nH]c3N)cc2)cc1 [Compound 32d] | 
